Results on 4 molecules are retold here after patent US20130252987A1, “METHOD OF REGULATING PLASMA LIPOPROTEINS” (MCMASTER UNIVERSITY, priority 2010, published 2013).

The subject of series [1] is HepG2 cells. In words: apoB and apolipoprotein expression and secretion, immunoprecipitation and Western blot. The class given is cell-based, human. Particulars: lactacystin 10 μM, 24 hours. The method, then: During experiments in which HepG2 cells were treated with human recombinant resistin (Calbiochem, UK) the media was changed to 1% FBS-containing DMEM. […] In separate experiments, cells were treated with the fatty acid, oleate (100 μM) (Sigma, ON) for 24 hours, with or without human resistin (50 ng/mL) for 24 hours. In other experiments, cells were treated with the 10 μM lactacystin (Cayman Chemical, Ann Arbor, Mich.) for 24 hours to assess intracellular proteosome-dependent apoB protein degradation.
Horseradish peroxidase-conjugated antibodies (BioRad, Hercules, Calif.) were used as secondary antibodies.
All of the experiments to follow were performed three times and representative results are shown. […] Immunoprecipitation on cell lysates and media, followed by Western blots to detect the cellular expression and secretion of human apoB protein were then performed. The constitutively expressed cellular proteins, beta-actin and albumin were used as internal immunoblot controls to confirm equal protein loading in the apoB immunoblots of cell lysates and media, respectively. […] Treatment with 25 ng/mL resistin further stimulated apoB secretion by approximately 250% compared with untreated cells (FIG. 1A).

The subject of series [2] is HepG2 cells. The experiment in a line: immunoblotting for LDL receptor and PCSK9 in HepG2 cells.
Description: Cells were propagated in 10% FBS-containing DMEM supplemented with 1% penicillin-streptomycin and 0.06% L-glutamine (584 mg/L) at 37° C., 5% CO2. During treatment experiments with human recombinant resistin (Calbiochem, UK) and/or lovastatin (Sigma, Mo.), the media was changed to 1% FBS-containing DMEM. All of the experiments to follow were performed at least three times and representative results are shown. Cells were stimulated with resistin at various doses (0, 10, 25, 50, and 100 ng/mL) for 24 hours or with a single dose at 50 ng/mL resistin. In other experiments, the microsomal triglyceride transfer protein (MTP) inhibitor, CP-346086, was administered at 1.3 nM, either alone or together with resistin (50 ng/mL) for 24 hours. Lovastatin was administered at 1 to 5 μM for 24 hours to stimulate the cells, either alone or in combination with resistin (50 ng/mL). Unless otherwise indicated, all experiments were performed in triplicate in three independent experiments.
Cell lysates collected with RIPA buffer (50 mM Tris, 150 mM sodium chloride, 1% NP-40, 12 mM sodium deoxycholate, 3.5 mM SDS, pH 7.4) and protease inhibitor cocktail (Roche Diagnostics, QC) were analyzed for human LDL receptor and PCSK9 as previously described (Rashid et al. Proc Nall Acad Sci U S A 2005; 102:5374-9). Equivalent amounts of total protein, determined by Bradford reaction was subjected to sodium dodecyl sulfate polyacrylamide gel electrophoresis (SDS-PAGE), transferred onto nitrocellulose membranes (BioRad, CA) and immunoblotted using antibodies against the LDL receptor (Fitzgerald International, CA) and PCSK9 (Cayman Chemicals, MI). Horseradish peroxidase-conjugated antibodies (BioRad, CA) were used as secondary antibodies. Immunoreactive bands were visualized with a chemiluminescence kit (PerkinElmer Life Sciences, MA). The blots were exposed to KODAK Biomax films, and the signal was quantified by densitometry using Quantity One version 4.6.7. software (Bio Rad, CA).
All of the experiments were performed at least three times and representative results are shown. Dose-response experiments were performed in HepG2 cells with 0, 10, 25, 50, 75 and 100 ng/mL of human resistin for 24 hours. Western blots were then performed on cell lysates to detect the cellular expression of LDL receptor protein.
Series [3] relates to HepG2 cells. The experiment in a line: cell viability, tryphan blue staining. Format: cell-based, human. Particulars: 1.3 nM. The procedure: Cell viability was determined with 0.4% tryphan blue (Sigma-Aldrich, ON) staining and calculated using the following formula: % Cell Viability=(number of unstained (living) cells/Total number of cells)×100.
The next question was whether this amount of human resistin is toxic to hepatocytes. Tryphan blue staining of HepG2 cells upon 50 ng/mL of resistin treatment to determine cell viability was performed.

For series [4], the system named is HepG2 cells. In words: real-time quantitative PCR of mRNA expression. The class given is cell-based, human. Particulars: CP-346086 1.3 nM, 24 hours. The method, then: Total RNA was isolated from cell lysates (RNeasy Mini Kit, Qiagen, Germantown, Md.) and used as a template for cDNA synthesis (QuantiTech Reverse Transcription Kit, Qiagen, Germantown, Md.). Quantitative real-time PCR was performed using an Applied Biosystems 7300 Real Time PCR system (Carlsbad, Calif.) according to the manufacturer's instructions and with the SYBR green master kit (Qiagen, Germantown, Md.). Primers for the real-time PCR internal control gene cyclophilin A (sense, 5′-[…]-3′ (SEQ ID NO:3); antisense, 5′-[…]-3′ (SEQ ID NO:4)) were synthesized (IDT, Coralville, Iowa). Primers for succinate degydrogenase (SDH) (another real-time PCR internal control gene), apoB, microsomal triglyceride transfer protein (MTP), Srebp1, Srebp2, acetyl-coA carboxylase (ACC), HMG-coA reductase, HMG-coA synthase, squalene synthase (SS), the LDL receptor, PCSK9, fatty acid synthase (FAS), […] (SCD), DGAT1 and DGAT2 were purchased (proprietary sequences not available) (Qiagen, Germantown, Md.). The values reported for each mRNA were corrected to the cyclophilin A and SDH mRNA values.
Total RNA was isolated from cell lysates (RNeasy Mini Kit, Qiagen, MD) and used as a template for cDNA synthesis (QuantiTech Reverse Transcription Kit, Qiagen, MD). Quantitative real-time PCR was performed using an Applied Biosystems 7300 Real-Time PCR system (Carlsbad, Calif.) according to the manufacturer's instructions and with the SYBR green kit (Qiagen, MD). Primers for the real-time PCR internal control gene cyclophilin A, as identified in Example 1, were synthesized (IDT, IA). Primers for succinate dehydrogenase (SDH) (another real-time PCR internal control gene), SREBP2, HMG-CoA reductase, the LDL receptor and PCSK9 were purchased (proprietary sequences not available) (Qiagen, MD). The values reported for each mRNA were corrected to the cyclophilin A and SDH mRNA values.

In series [5] the test system is RETN (human resistin gene). In words: resistin siRNA transfection of HepG2 cells. Format: cell-based. The conditions noted are these: 10 nM siRNA, 24 or 48 hours. The method, then: HepG2 cells were seeded 200,000 cells per well in a 6-well plate in 2300 uL of 10% FBS DMEM with antibiotics. Awaiting transfection, the cells were placed at 37° C. and 5% CO2. Next, 300 ng of siRNA against RETN (human resistin gene), with the sequence 5′[…] (SEQ ID NO: 5), purchased from Qiagen, MD, was diluted in 100 uL of serum free DMEM which yielded a final concentration of 10 nM once added to cells. 12 uL of HiPerfect Transfection reagent (Qiagen) was also added to the siRNA and mixed by pipetting. The siRNA mixture was allowed to form transfection complexes by incubation at room temperature for 7 minutes. The complexes were then added drop wise to the cells and incubated at 37° C. and 5% CO2 for 24 or 48 hours before harvest. Transfection efficiency was quantitatively measured by the fluorescently labeled scrambled negative control siRNA (Qiagen). siRNA knockdown efficiency was measured by positive control siGAPDH (Qigen) at the transcript and protein levels.

[6] abbreviates: CP-346086 1.3 nM with resistin 50 ng/mL, 24 hours.

For `CC(=O)N[C@@H](CSC(=O)[C@]1([C@@H](O)C(C)C)NC(=O)[C@H](C)[C@@H]1O)C(=O)O` [lactacystin, reference compound], the “cellular expression and secretion of apoB” value in series [1] was “increase”.
Take `CC[C@H](C)C(=O)O[C@H]1C[C@@H](C)C=C2C=C[C@H](C)[C@H](CC[C@@H]3C[C@@H](O)CC(=O)O3)[C@H]21` [lovastatin, reference compound]: the “hepatocyte LDL receptor expression” value in series [2] (lovastatin 5 μM) is recorded as “increase”.
With `O=C(Nc1ccc2c(c1)CCN(Cc1ncn[nH]1)C2)c1ccccc1-c1ccc(C(F)(F)F)cc1` [CP-346086, reference compound], the cell viability entry in series [3] is reported as “did not reduce cell viability”. Further, in series [4], the “HMG-coA reductase mRNA expression” value was “reduction” and the “SREBP2 mRNA expression” value is “reduction”. For the same molecule, in series [2] (setting [6]), the “effect on LDL receptor protein levels observed with resistin treatment” value is “reversed the decline” and the “effect on PCSK9 protein levels induced by resistin” value is reported as “reversed the increase”.
For the molecule “Resistin siRNA: siRNA against RETN (human resistin gene), sequence 5′CCCTAATATTTAGGGCAATAA (SEQ ID NO: 5), Qiagen (listed as DNA, chemistry not given here)”, in series [5], the “cellular LDL receptor levels” value was “very effective in increasing”, the “cellular PCSK9 levels” value is recorded as “reduction”, the “cellular protein levels of resistin” value is given as “very effective in reducing” and the “expression of apoB” value is listed as “reducing the expression”.
